The values below come from patent US20020107228A1, “Topical bisphosphonates for prevention of bone resorption” (Merck & Co., Inc, priority 1996, published 2002).

For test [1], the system named is Wistar rats. To be noted: topical, 1 mm GELFOAM pellet soaked in 0.025 ml of 20 mg/ml alendronate in saline, in situ at least two hours; sacrifice 21 days after surgery; vs GELFOAM-only control side.
Protocol: Wistar rats were used in the following experiment. The right side of the mandible was used as the experimental side and the left side was used as the control.
The rats were anesthetized prior to surgery using a mixture of 25 mg/kg body weight of KETALAR (Malgene, Lyon, France) and 42 mg/kg body weight of XYLAZINE (Rampun Bayer, Leverkusen, Germany) intraperitoneally (IP).
A mucoperiosteal flap was made on both the buccal and lingual aspects in the region of premolars and molars on both sides of the mandible, two quadrants per rat. The flap was elevated using a special small periosteal elevator. A 1 mm diameter piece of GELFOAM (Upjohn Co., Kalamazoo, Mich.) which was soaked in 0.025 ml alendronate solution (below) was applied to the alveolar bone on both buccal and lingual aspects on the experimental (right) side and the flap was then readapted immediately in place without sutures.
The alendronate solution was prepared by dissolving 20 mg alendronate in 1 ml saline.
A GELFOAM pellet of 1 mm diameter, identical to the alendronate-soaked pellet, but lacking the alendronate, was applied to the alveolar bone in the control side. The entire procedure lasted about 20-40 seconds. The GELFOAM pellets remained in situ for at least two hours while the anesthesia was effected. The rats were fed a soft diet for 24 hours after surgery to avoid flap displacement. […]
The subject of test [2] is Wistar rats. The settings on record: sacrifice 3 weeks after flap.
Protocol: 63 Wistar rats were used in this experiment, and were divided into the four groups. Group A: 15 rats received 0.05 mg/kg body weight of alendronate. Group B: 15 rats received 0.25 mg/kg body weight of alendronate. Group C: 15 rats received 0.5 mg/kg body weight of alendronate. Group D was the control group, where 18 rats received saline. The alendronate sodium or saline was administered one week prior to surgery, at the day of surgery before the surgery was performed, and one week following surgery. The drug was administered IV in the dorsal vein of the penis.
In one experiment, one group of rats were anesthetized prior to surgery or alendronate administration using a mixture of 25 mg/kg body weight of KETALAR (Malgene, Lyon France), and 42 mg/kg body weight XYLAZINE (Rampun Bayer, Leverkusen, Germany) intraperitoneally (IP). A portion of these rats also received 25 mg/kg alendronate IP. […] The flap was elevated using a special small periosteal elevator, and readapted immediately in place without sutures. […]
In another set of experiments, alendronate was applied locally at three dose levels using a wet gauze sponge soaked with a solution of 0.15, 0.75, and 1.5 mg/ml on the exposed bone on the experimental side and saline on the exposed bone on the control side for 10 seconds. Since the sponge could absorb 0.1 ml, the maximum calculated amount of drug applied was 0.5 mg/kg body weight. […]
The subject of a further test is alveolar bone resorption. To be noted: Yaffe et al. 1995, cited from earlier work.

Turning to `NCCCC(O)(P(=O)(O)O)P(=O)(O)O` [alendronate, 4-amino-1-hydroxy-butylidene 1,1,-bisphosphonic acid], in the test on Wistar rats [1], the “bone resorption (alveolar bone, X-ray microradiography)” value is given as “inhibited”. Also, in the test on Wistar rats [2] (IV, all doses (0.05, 0.25, 0.5 mg/kg), one week before, day of and one week after surgery), the “alveolar bone resorption (X-ray microradiography)” value was “reduced”. Also, the “effect on reducing bone resorption (alveolar bone, X-ray microradiography)” value in the test with Wistar rats [2] (applied locally for 10 seconds on alveolar bone during surgery, wet gauze sponge, 0.15, 0.75 and 1.5 mg/ml) was “no noticeable effect”. Besides, the “inhibiting bone resorption following surgery” value in the test on alveolar bone resorption (alendronate solutions applied topically) is on record as “not found to be effective”. Also, the “amount of alveolar bone resorption following surgery” value with alveolar bone resorption (intravenous administration) was “reduce”.
